Data published in patent publication US4189349A, “α,δ-Diaminoacid and its lactam” (Rhone-Poulenc Industries, priority 1977, dated 1980).
Values after ≈ are worked out from the molar mass of the structure shown. Read-outs that look alike come from different tables or passages of the source.

Key:
Candida albicans = assay: Anti-fungal activity in vivo, generalised candidosis in mice; parameters: species or system Candida albicans in mice; conditions: orally or subcutaneously, between 25 mg/kg and 200 mg/kg per day for 4 consecutive days
[1] = Potentiometric titration of an aqueous solution; assay type: physicochemical; conditions: water
Description: The potentiometric equivalent is about 390.
The potentiometric equivalent is about 400.
The potentiometric equivalent is about 370.

bacteria = assay: Bacteriostatic activity towards bacteria; assay type: cell-based
Toxicity in mice = conditions: mouse, in vivo; mice, oral; read-out: 50% lethal dose (LD50)
Candida albicans IP 200 = assay: Anti-fungal activity in vitro by dilution method; assay type: cell-based; conditions: IP200, 95 to 100% inhibition, read-out: Minimum active concentration (AC 95-100)
Procedure: (§1) Anti-fungal activity in vitro: The anti-fungal activity of 32232 RP and of 35391 RP towards a certain number of fungi has been determined by one of the dilution methods usually employed for this purpose. For each fungus, the smallest concentration of active substance which, under defined conditions, causes 95 to 100% inhibition of the fungus (AC 95-100) was determined. The results of the various determinations are summarised in Table III below, where the minimum active concentrations are expressed in micrograms of substance per cc. of test medium.

Botrytis cinerea = assay: Anti-fungal activity in vitro by dilution method; assay type: cell-based; conditions: 95 to 100% inhibition, read-out: Minimum active concentration (AC 95-100)
Procedure: as §1

Blastomyces dermatitidis = assay: Anti-fungal activity in vitro by dilution method; assay type: cell-based; conditions: 95 to 100% inhibition, read-out: Minimum active concentration (AC 95-100)
Procedure: as §1

Candida albicans Pa 1 = assay: Anti-fungal activity in vitro by dilution method; assay type: cell-based; conditions: PA1, 95 to 100% inhibition, read-out: Minimum active concentration (AC 95-100)
Procedure: as §1

Aspergillus fumigatus = assay: Anti-fungal activity in vitro by dilution method; assay type: cell-based; conditions: 95 to 100% inhibition, read-out: Minimum active concentration (AC 95-100)
Procedure: as §1

Candida krusei IP 208 = assay: Anti-fungal activity in vitro by dilution method; assay type: cell-based; conditions: Pichia kudriavzevii, IP208, 95 to 100% inhibition, read-out: Minimum active concentration (AC 95-100)
Procedure: as §1

Fusarium oxysporum = assay: Anti-fungal activity in vitro by dilution method; assay type: cell-based; conditions: 95 to 100% inhibition, read-out: Minimum active concentration (AC 95-100)
Procedure: as §1

Microsporum canis = assay: Anti-fungal activity in vitro by dilution method; assay type: cell-based; conditions: 95 to 100% inhibition, read-out: Minimum active concentration (AC 95-100)
Procedure: as §1

[2] = system: Trichophyton mentagrophytes; assay: Anti-fungal activity in vitro by dilution method; assay type: cell-based; conditions: 95 to 100% inhibition, read-out: Minimum active concentration (AC 95-100)
Procedure: as §1

Candida albicans Hi 7 = assay: Anti-fungal activity in vitro by dilution method; assay type: cell-based; conditions: HI7, 95 to 100% inhibition, read-out: Minimum active concentration (AC 95-100)
Procedure: as §1

Penicillium digitatum = assay: Anti-fungal activity in vitro by dilution method; assay type: cell-based; conditions: 95 to 100% inhibition, read-out: Minimum active concentration (AC 95-100)
Procedure: as §1

Rhizopus nigricans = assay: Anti-fungal activity in vitro by dilution method; assay type: cell-based; conditions: Rhizopus stolonifer, 95 to 100% inhibition, read-out: Minimum active concentration (AC 95-100)
Procedure: as §1

Saccharomyces cerevisiae = assay: Anti-fungal activity in vitro by dilution method; assay type: cell-based; conditions: 95 to 100% inhibition, read-out: Minimum active concentration (AC 95-100)
Procedure: as §1

[3] = system: Saccharomyces ellipsoideus; assay: Anti-fungal activity in vitro by dilution method; assay type: cell-based; conditions: 95 to 100% inhibition, read-out: Minimum active concentration (AC 95-100)
Procedure: as §1

Epidermophyton floccosum = assay: Anti-fungal activity in vitro by dilution method; assay type: cell-based; conditions: 95 to 100% inhibition, read-out: Minimum active concentration (AC 95-100)
Procedure: as §1

Hansenula anomala = assay: Anti-fungal activity in vitro by dilution method; assay type: cell-based; conditions: 95 to 100% inhibition, read-out: Minimum active concentration (AC 95-100)
Procedure: as §1

[4] = Anti-fungal activity in vitro by dilution method; assay type: cell-based; conditions: Trichophyton rubrum; 95 to 100% inhibition; Microsporum rubrum; read-out: Minimum active concentration (AC 95-100)
Procedure: as §1

[5] = system: Saccharomyces pastorianus; assay: Anti-fungal activity in vitro by dilution method; assay type: cell-based; conditions: 95 to 100% inhibition, read-out: Minimum active concentration (AC 95-100)
Procedure: as §1

Mucor corymbifer = assay: Anti-fungal activity in vitro by dilution method; assay type: cell-based; conditions: Lichtheimia corymbifera, 95 to 100% inhibition, read-out: Minimum active concentration (AC 95-100)
Procedure: as §1

Aspergillus niger = assay: Anti-fungal activity in vitro by dilution method; assay type: cell-based; conditions: 95 to 100% inhibition, read-out: Minimum active concentration (AC 95-100)
Procedure: as §1

[6] = Solubility (French Pharmacopoeia terms / in water); assay type: physicochemical
Procedure: 32232 RP and 35391 RP are of particular interest because of their activity on fungi and yeasts. 32232 RP, in the form of the internal salt, is characterised by the following physical properties:
Solubility: 35391 RP is soluble in water at the rate of about 10 mg/cc.

mice = assay: Toxicity in mice; conditions: mouse, in vivo, 1000 mg/kg
[7] = 0.1M hydrochloric acid, read-out: apparent pKa of basic group

| Structure (SMILES) | Anti-fungal activity in vivo against generalised candidosis (Candida albicans) | pKa [1, 7] | bacteriostatic activity towards bacteria (bacteria) | MIC (Candida albicans IP 200) [µg/mL] | MIC (Botrytis cinerea) [µg/mL] | MIC (Blastomyces dermatitidis) [µg/mL] | MIC (Candida albicans Pa 1) [µg/mL] | MIC (Aspergillus fumigatus) [µg/mL] | MIC (Candida krusei IP 208) [µg/mL] | MIC (Fusarium oxysporum) [µg/mL] | MIC (Microsporum canis) [µg/mL] | MIC [2] [µg/mL] | MIC (Candida albicans Hi 7) [µg/mL] | MIC (Penicillium digitatum) [µg/mL] | MIC (Rhizopus nigricans) [µg/mL] | MIC (Saccharomyces cerevisiae) [µg/mL] | MIC [3] [µg/mL] | MIC (Epidermophyton floccosum) [µg/mL] | MIC (Hansenula anomala) [µg/mL] | MIC [4] [µg/mL] | further results |
| --- | --- | --- | --- | --- | --- | --- | --- | --- | --- | --- | --- | --- | --- | --- | --- | --- | --- | --- | --- | --- | --- |
| Nc1ncnc2c1ncn2C1OC(CC(N)CCC(N)C(=O)O)C(O)C1O (stereo not drawn) [32232 RP] | particularly active | 8.1 | generally devoid of bacteriostatic activity | 5 (≈ 13.1 µM) | > 500 | 5 (≈ 13.1 µM) | 3 (≈ 7.87 µM) | > 500 | 4 (≈ 10.5 µM) | > 500 | > 500 | > 500 | 5 (≈ 13.1 µM) | 15 (≈ 39.3 µM) | > 500 | 0.3 (≈ 0.787 µM) | 0.9 (≈ 2.36 µM) | > 500 | 2 (≈ 5.24 µM) | > 500 | pKa ([1]; 0.1M sodium hydroxide, read-out: apparent pKa of weak acid group): 9.8; LD50 (Toxicity in mice): > 1000 mg/kg; MIC [5]: 0.3 µg/mL (≈ 0.787 µM); MIC (Mucor corymbifer): > 500 µg/mL; MIC (Aspergillus niger): > 500 µg/mL; Solubility ([6]; in acetone, internal salt, French Pharmacopoeia): virtually insoluble; Solubility ([6]; in dimethylformamide, internal salt, French Pharmacopoeia): very slightly soluble; Solubility ([6]; in methanol, internal salt, French Pharmacopoeia): very slightly soluble; Solubility ([6]; in water, internal salt, French Pharmacopoeia): easily soluble |
| Nc1ncnc2c1ncn2C1OC(CC2CCC(N)C(=O)N2)C(O)C1O (stereo not drawn) [35391 RP] | particularly active | 7.7 | generally devoid of bacteriostatic activity | 70 (≈ 193 µM) | > 500 | 60 (≈ 165 µM) | 40 (≈ 110 µM) | > 500 | 60 (≈ 165 µM) | > 500 | 300 (≈ 826 µM) | 350 (≈ 963 µM) | 75 (≈ 206 µM) | 25 (≈ 68.8 µM) | > 500 | 10 (≈ 27.5 µM) | 15 (≈ 41.3 µM) | 250 (≈ 688 µM) | 35 (≈ 96.3 µM) | 300 (≈ 826 µM) | Toxicity (mice): non-toxic; MIC [5]: 7 µg/mL (≈ 19.3 µM); MIC (Mucor corymbifer): > 500 µg/mL; MIC (Aspergillus niger): > 500 µg/mL; Solubility ([6]; in water, read-out: Solubility): ~10000 µg/mL (≈ 27500 µM) |
